In patent publication US7514251B2, “O-methyltransferases of tetrahydrobenzylisoquinoline alkaloid biosynthesis in Papaver somniferum” (priority 2003, dated 2009):
Where two headings read alike, the source gives them in different places. Marks after values point to notes of the source that are not given here.

Experiments:
[1] = target: T1, PSOMT1 ((R,S)-reticuline 7-O-methyltransferase) (Papaver somniferum, UniProt Q6WUC2); format: biochemical; settings: for methylated by PSOMT1 (radioassay, in words): one of forty substrates tested; for Km: read-out: Km Substrate
T1 construct: The full-length cDNA generated by RT-PCR was ligated into pFastBac HTa; His6 (N); made in house; host or cells: Spodoptera frugiperda Sf9 (baculovirus, pFastBac HTa)
Text: (§1) Heterologous Expression and Enzyme Purification—The full-length cDNA generated by RT-PCR was ligated into pFastBac HTa that had been digested with restriction endonucleases BamHI and NotI. The recombinant plasmid was transposed into baculovirus DNA in the Escherichia coli strain DH10BAC (Life Technologies) and then transfected into Spodoptera frugiperda Sf9 cells according to the manufacturer's instructions. The insect cells were propagated and the recombinant virus was amplified according to (16,17). INSECT-XPRESS serum-free medium (Bio Whittaker) was used in the enzyme expression experiments.
(§2) After infection of 20 ml suspension grown insect cells had proceded for 3-4 days at 28° C. and 130 rpm, the cells were removed by centrifugation under sterile conditions at 900× g for 5 min at 4° C. All subsequent steps were performed at 4° C. The pellet was discarded and to the medium was added 0.73 g NaCl, 2.5 ml glycerol and 50 μl […]-mercaptoethanol. The pH was adjusted to 7.0 with 1.0 M NaOH. The His-tagged O-methyltransferase was then purified by affinity chromatography using a cobalt resin (Talon, Clontech) according to the manufacturer's instructions.
(§3) Enzyme assay and product identification: The O-methylation reactions catalysed by the two O-methyltransferases were assayed at least two times in duplicate according to Rüffer et al. (1983a; 1983b) as follows. Substrate (25 nmol), [methyl-3H]-AdoMet (20,000 dpm, 0.4 fmol), AdoMet (10 nmol) Tris/HC1 buffer pH 8.0 (10 μmol), ascorbate (5 μmol) and 5-10 μg of enzyme were incubated in a total volume of 150 μl at 35° C. for 5-60 min. The enzymic reaction was terminated by addition of 200 μl ethylacetate. The organic phase ([…]) was added to 3 ml high flash point liquid scintillation cocktail (Packard) and the radioactivity quantified with a Beckman LS6000TA liquid scintillation counter.
(§4) General Methods—Total RNA was isolated and RNA gels were run and blotted as described previously (20). Genomic DNA was isolated and DNA gels were run and blotted according to (21). cDNA clones were labeled by PCR labeling with [[…]-^32P]dATP. Hybridized RNA on RNA gel blots and DNA on DNA gel blots were visualized with a STORM phosphor imager (Molecular Dynamics). The entire nucleotide sequence on both DNA strands of the full-length clone was determined by dideoxy cycle sequencing using internal DNA sequences for the design of deoxyoligonucleotides as sequencing primers. Saturation curves and double reciprocal plots were constructed with the Fig. P program Version 2.7 (Biosoft, Cambridge, UK). The influence of pH on enzyme activity was monitored in sodium citrate (pH 4-6), sodium phosphate (pH 6-7.0) and Tris-HCl (pH 7.0-9), glycine/NaOH (pH 9-10.5) buffered solutions.

[2] = target: T2, PSOMT2 ((R,S)-norcoclaurine 6-O-methyltransferase) (Papaver somniferum, UniProt Q6WUC1); assay: Radioassay of recombinant PSOMT2 with [methyl-3H]-AdoMet (substrate specificity, kinetics, pH and temperature optima); format: biochemical; settings: for Substrate specificity, relative activity of PSOMT2: 100% activity = 2.0 pmoles/sec/mg total protein, radioassay
T2 construct: The full-length cDNA generated by RT-PCR was ligated into pFastBac HTa; His6 (N); made in house; host or cells: Spodoptera frugiperda Sf9 (baculovirus, pFastBac HTa)
T2 sequence (Q6WUC1 1-346): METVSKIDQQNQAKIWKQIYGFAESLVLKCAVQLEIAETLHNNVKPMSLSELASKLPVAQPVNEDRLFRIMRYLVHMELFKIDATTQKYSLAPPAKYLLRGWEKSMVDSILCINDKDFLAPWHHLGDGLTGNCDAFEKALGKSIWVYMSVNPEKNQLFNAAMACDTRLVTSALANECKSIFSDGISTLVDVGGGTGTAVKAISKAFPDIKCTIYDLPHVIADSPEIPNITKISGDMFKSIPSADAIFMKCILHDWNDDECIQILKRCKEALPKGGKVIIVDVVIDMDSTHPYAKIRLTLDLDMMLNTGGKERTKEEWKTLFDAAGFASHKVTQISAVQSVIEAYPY
Text: as §1, §2, §3, §4

[3] = 100% activity = 1.5 pmoles/sec/mg total protein, radioassay

T1 sequence (Q6WUC2 whole entry): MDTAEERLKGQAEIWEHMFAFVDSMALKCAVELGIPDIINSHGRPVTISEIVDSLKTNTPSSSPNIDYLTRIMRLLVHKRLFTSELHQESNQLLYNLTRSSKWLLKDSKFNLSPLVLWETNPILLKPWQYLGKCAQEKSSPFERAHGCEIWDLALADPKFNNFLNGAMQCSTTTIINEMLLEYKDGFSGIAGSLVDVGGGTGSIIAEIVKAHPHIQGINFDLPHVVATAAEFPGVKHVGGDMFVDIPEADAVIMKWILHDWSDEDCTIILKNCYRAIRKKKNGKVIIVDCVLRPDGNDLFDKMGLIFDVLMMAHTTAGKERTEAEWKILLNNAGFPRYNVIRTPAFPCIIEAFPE

| SMILES | Substrate specificity, relative activity of PSOMT1 [1, 3] [%] | Substrate specificity, relative activity of PSOMT2 [2] | also measured |
| --- | --- | --- | --- |
| O=C(O)/C=C/c1ccc(O)c(O)c1 [Caffeic acid] | 0 | 0% | – |
| COc1ccc(CC2NCCc3cc(OC)c(O)cc32)cc1 (racemic) [(R,S)-4′-O-methylcoclaurine] | 0 | 0% | – |
| COc1cc2c(cc1O)C(Cc1ccc(O)cc1)N(C)CC2 (racemic) [(R,S)-N-Methylcoclaurine] | 0 | 0% | – |
| COc1ccccc1O [Guaiacol] | 242 | 0% | Vmax Substrate ([1]; PSOMT1): 6 pmol/s; kcat Substrate ([1]; PSOMT1): 0.1 s⁻¹; kcat/Km ratio relative to the values determined for reticuline ([1]; PSOMT1): 135%; pH optimum of methylation ([1]; PSOMT1): 8.0; ratio kcat/Km ([1]; PSOMT1): 5870 M⁻¹ s⁻¹; temperature optimum ([1]; PSOMT1): 37 °C; methylated by PSOMT1 (radioassay, in words) [1]: methylates; Km ([1]; PSOMT1): 17 µM |
| COc1cc(C(=O)O)ccc1O [Vanillic acid] | 0 | 0% | – |
| COc1c(-c2ccc(O)c(O)c2)oc2cc(O)cc(O)c2c1=O [Quercetin-3-methylether] | 0 | 0% | – |
| O=c1ccc2cc(O)c(O)cc2o1 [Esculetin] | 0 | 0% | – |
| COc1cc2c(cc1O)[C@@H]1Cc3ccc(OC)c(O)c3CN1CC2 [(S)-Scoulerine] | 0 | 0% | – |
| COc1cc(O)c2c(=O)c(O)c(-c3ccc(O)c(O)c3)oc2c1 [Quercetin-7-methylether] | 0 | 0% | – |
| COc1cc2c(cc1O)C(Cc1ccc(O)c(O)c1)N(C)CC2 (racemic) [(R,S)-6-O-Methyllaudanosoline] | 0 | 0% | – |
| COC1=C[C@]23CCN(C)[C@H](Cc4ccc(OC)c(O)c42)C3=CC1=O [Salutaridine] | 0 | 0% | – |
| Oc1ccccc1O [Catechol] | 0 | 0% | – |
| COc1cc2c(cc1O)[C@H](Cc1ccc(O)cc1)NCC2 [(S)-Coclaurine] | 0 | 0% | – |
| COc1cc(CC2NCCc3cc(OC)c(O)cc32)ccc1O (racemic) [(R,S)-Nororientaline] | 0 | 0% | – |
| COc1ccc(C[C@H]2c3cc(O)c(O)cc3CCN2C)cc1O [(S)-4′-O-Methyllaudanosoline] | 0 | 0% | – |
| COc1ccc(C(=O)O)cc1O [Isovanillic acid] | 40 | 0% | Vmax Substrate ([1]; PSOMT1): 1 pmol/s; kcat Substrate ([1]; PSOMT1): 0.02 s⁻¹; pH optimum of methylation ([1]; PSOMT1): 7.5; ratio kcat/Km ([1]; PSOMT1): 1210 M⁻¹ s⁻¹; methylated by PSOMT1 (radioassay, in words) [1]: methylates; Km ([1]; PSOMT1): 14 µM |
| COc1cc2c(cc1O)C[C@H]1c3cc(O)c(OC)cc3CCN1C2 [(S)-Coreximine] | 0 | 0% | – |
| O=C(O)c1ccc(O)c(O)c1 [Protocatechuic acid] | 0 | 0% | – |
| NCCc1ccc(O)c(O)c1 [Dopamine] | – | 0% | Substrate specificity, relative activity of PSOMT1 [1]: 0% |
| COc1ccc(C[C@H]2NCCc3cc(OC)c(O)cc32)cc1O [(R)-Norreticuline] | 0 | 0% | – |
| COc1ccc2c(c1)CCN[C@H]2Cc1ccc(OC)c(O)c1 [(S)-7-Dehydroxy-norreticuline] | 0 | 0% | – |
| COc1ccc(C[C@@H]2NCCc3cc(OC)c(O)cc32)cc1O [(S)-Norreticuline] | 0 | 0% | – |
| CN1CC[C@]23c4c5ccc(O)c4O[C@H]2[C@@H](O)C=C[C@H]3[C@H]1C5 [Morphine] | 0 | 0% | – |
| COc1ccc2c(c1)CCN[C@@H]2Cc1ccc(OC)c(O)c1 [(R)-7-Dehydroxy-norreticuline] | 0 | 0% | – |
| COc1cc2c(cc1O)[C@H](Cc1ccc(OC)c(OC)c1)N(C)CC2 (racemic) [(R,S)-Codamine] | 0 | 0% | – |
| COc1ccc(CC2c3cc(OC)c(OC)cc3CCN2C)cc1O (racemic) [(R,S)-Laudanidine] | 0 | 0% | – |
| O=c1c(O)c(-c2ccc(O)c(O)c2)oc2cc(O)cc(O)c12 [Quercetin] | 0 | 0% | – |
| O=c1c(O)c(-c2ccc(O)cc2O)oc2cc(O)cc(O)c12 [Morin] | 0 | 0% | – |
| COc1cc2c(cc1O)CCNC2Cc1ccc(O)cc1 (racemic) [(R,S)-Isococlaurine] | 0 | 0% | – |
| Oc1ccc(CC2NCCc3cc(O)c(O)cc32)cc1 (racemic) [(R,S)-Norcoclaurine] | 0 | 100^a % | Vmax Substrate ([2]; PSOMT2): 5 pmol/s; kcat Substrate ([2]; PSOMT2): 0.08 s⁻¹; Km ([2]; PSOMT2, co-substrate AdoMet with the named substrate, read-out: Km AdoMet): 100 µM; Km ([2]; PSOMT2, read-out: Km Substrate): 10 µM; pH range of methylation ([2]; PSOMT2, wide pH range): 6.0-9.0; methylated by PSOMT2 (radioassay, in words) ([2]; one of forty substrates tested): methylating |
